In brackets after ≈: the same amount, converted by molar mass. Read-outs that look alike come from different tables or passages of the source. Peptide text beside a SMILES is read from it. * marks the point of attachment. βNA = c1ccc2cc(N*)ccc2c1
Columns and labels:
E. coli FtsZ [1] = details: E. coli FtsZ; ref Domadia et al., 2007; cited from earlier work
E. coli = details: cited from earlier work
E. coli FtsZ [2] = tested on: E. coli FtsZ; set-up: method as in Domadia et al., 2007; details: ref Domadia et al., 2007, read-out: IC50, GTPase activity; cited from earlier work
A. baumannii ATCC 19606 [3] = test: MIC, microbroth dilution (EUCAST); format: cell-based, Acinetobacter baumannii
Method: (§1) Reference bacterial strains were obtained from the American Type Culture Collection (ATCC). Vancomycin resistant Enterococcus faecium (VRE 734, wastewater isolate from the Venter Laboratory Collection) was isolated on Bile Esculin agar (Oxoid, Australia) containing 6 μg/mL vancomycin and identified using MALDI-TOF mass spectrometry (Bruker, Preston, Victoria, Australia, Australian Center for Antimicrobial Resistance Ecology). The Pseudomonas aeruginosa WT PAO1 and Escherichia coli with deletions of both acrA and acrB genes encoding drug efflux pumps were obtained from the Venter laboratory stock ([Welch et al., 2010]). The protocol for microbial growth was adopted from the European Committee on Antimicrobial Susceptibility Testing (EUCAST) ([European Committee for Antimicrobial Susceptibility Testing, 2016]).
(§2) Non-fastidious bacteria and clinical isolates were maintained in Mueller Hinton (MH) broth (Acumedia, United Kingdom) supplemented with 15% (v/v) glycerol (Chem-Supply, Australia), cultured on Mueller Hinton (MH) agar (Acumedia, United Kingdom) plated and incubated at 37°C. Fastidious bacteria were maintained in Brain Heart Infusion (BHI) broth (Acumedia, United Kingdom) supplemented with 15% (v/v) glycerol at −80°C. The fastidious bacteria were cultured on MH agar plates supplemented with 5% (v/v) lysed horse blood and 3% (v/v) fetal bovine serum and incubated at 30°C in the presence of 5% CO2. Drug susceptibility assays were carried out with the non-fastidious cultures grown in cation-adjusted Mueller Hinton (CaMH) broth (Becton Dickinson, France). Streptococcus pyogenes was grown in CaMH broth supplemented with 5% (v/v) lysed horse blood and 3% (v/v) fetal bovine serum whereas Enterococcus faecium was grown in BHI broth.
(§3) The minimum inhibitory concentrations (MICs) for all six compounds were determined using the microbroth dilution protocol as per EUCAST with an inoculum of approximately […] in an exponential growth phase ([European Committee for Antimicrobial Susceptibility Testing, 2016]). Bacterial suspension, 100 μL/well, was added to 100 μL/well of drug dilutions, then incubated for 18 h at 37°C. Fastidious bacterial suspensions were instead incubated at 30°C in the presence of 5% CO2. Bacterial growth was assessed by measuring the change in A600 nm between time 0 and 18 h (Cytation5® Cell Imaging Multi-Mode Reader, Bio-Tek®). Levofloxacin was used as the positive control. Assays were completed in duplicate in at least three independent experiments.

A. baumannii XDR UW 5075 = test: MIC, microbroth dilution (EUCAST); format: cell-based, Acinetobacter baumannii
Method: as §1, §2, §3

human red blood cells = test: Hemolysis assay; format: cell-based
Method: The hemolysis assay was performed using fresh human red blood cells (RBCs). […] These were performed in quadruplicate. Thereafter, 192 μL RBCs were added into all wells and the plates were incubated at 37°C under constant shaking (100 rpm) for 1 h. RBCs were precipitated by centrifugation of the plates (1,000× g for 3 min). An aliquot (100 μL) of each supernatant was transferred into a new 96-microwell plate and the A450 nm was determined using a PerkinElmer Enspire® plate reader. The fraction of intact RBC for each sample was determined as fraction of the intact RBCs for the sample without the addition of compounds (set at 100%) and plotted as a function of compound concentration.
A 1% (v/v) Triton X-100 was used to indicate complete RBC lysis (^‡). […] The assays were performed in quadruplicates. The plates were incubated at 37°C while constantly shaking at 100 rpm for 1 h. Intact RBCs were removed by centrifugation and the presence of hemolytic products in the supernatant were determined by measuring the absorbance at A450 nm. The results are presented in mean ± SEM. Statistical analysis was performed using one-way ANOVA and the asterisks (*) represent statistical significance (*p < 0.05; **p < 0.005; ***p < 0.0005; ****p < 0.0001).

[4] = tested on: Klebsiella pneumoniae ATCC 33495; test: Antibacterial activity (MIC), microbroth dilution; format: cell-based; details: ATCC33495; Klebsiella pneumoniae ATCC 33495; unit inferred; read-out: Antibacterial activity (MIC)
Method: as §1, §2, §3

[5] = tested on: Methicillin resistant Staphylococcus aureus; test: Antibacterial activity (MIC), microbroth dilution; format: cell-based; details: ATCC 43300 / MRSA; Methicillin resistant Staphylococcus aureus (MRSA ATCC 43300); unit inferred; read-out: Antibacterial activity (MIC)
Method: as §1, §2, §3

[6] = tested on: Klebsiella pneumoniae ATCC 13883; test: Antibacterial activity (MIC), microbroth dilution; format: cell-based; details: ATCC13883; Klebsiella pneumoniae ATCC 13883; unit inferred; read-out: Antibacterial activity (MIC)
Method: as §1, §2, §3

[7] = tested on: Escherichia coli WT BW 25113; test: Antibacterial activity (MIC), microbroth dilution; format: cell-based
Method: as §1, §2, §3

[8] = tested on: Pseudomonas aeruginosa WT PAO1; test: Antibacterial activity (MIC), microbroth dilution; format: cell-based; details: Pseudomonas aeruginosa WT PAO1; unit inferred; read-out: Antibacterial activity (MIC)
Method: as §1, §2, §3

[9] = tested on: Klebsiella pneumoniae ATCC 4352; test: Antibacterial activity (MIC), microbroth dilution; format: cell-based; details: ATCC4352; Klebsiella pneumoniae ATCC 4352; unit inferred; read-out: Antibacterial activity (MIC)
Method: as §1, §2, §3

[10] = tested on: Pseudomonas aeruginosa ATCC 27853; test: Antibacterial activity (MIC), microbroth dilution; format: cell-based; details: ATCC27853; Pseudomonas aeruginosa ATCC 27853; unit inferred; read-out: Antibacterial activity (MIC)
Method: as §1, §2, §3

[11] = tested on: Escherichia coli ATCC 35218; test: Antibacterial activity (MIC), microbroth dilution; format: cell-based; details: ATCC35218; Escherichia coli ATCC 35218; unit inferred; read-out: Antibacterial activity (MIC)
Method: as §1, §2, §3

[12] = tested on: Enterobacter aerogenes ATCC 13408; test: Antibacterial activity (MIC), microbroth dilution; format: cell-based; details: Klebsiella aerogenes, ATCC13408; Enterobacter aerogenes ATCC 13408; unit inferred; read-out: Antibacterial activity (MIC)
Method: as §1, §2, §3

[13] = tested on: A. baumannii ATCC 19606 and UW 5075; test: Outer membrane permeabilisation, nitrocefin hydrolysis; format: cell-based, Acinetobacter baumannii; details: PAβN at 100 or 200 µg/mL, nitrocefin hydrolysis at 490 nm
Method: A. baumannii ATCC 19606 and the extensively resistant strain UW 5075 were assayed for permeabilisation of the outer membrane by the efflux pump inhibitor PAβN. Nitrocefin was added to the cells that received no treatment (black circles), cells treated with the outer membrane permeabilizer polymyxin B (PMB, red squares) or PAβN at 100 µg/mL (light blue triangles) or 200 µg/mL (dark blue triangles). Nitrocefin hydrolysis by the periplasmic β-lactamase was observed as an increase in absorbance at 490 nm. Representative traces are shown from triplicate experiments performed on different days. Symbols represent the mean of triplicate readings ± SEM.

A. baumannii ATCC 19606 [14] = test: Cell division phenotype by light microscopy; format: cell-based, Acinetobacter baumannii; details: divin at 64 μg/mL
Method: Morphological changes of bacteria when exposed to the compounds were assessed microscopically using the assay as previously described ([Chai et al., 2020]). Eppendorf® tubes were set up with A. baumannii ATCC 19606 as described for the time-kill assays. At time 0, 1, 3, 6, and 18 h, an aliquot of the bacterial suspension (1 μL) was transferred onto a glass slide and viewed under a light microscope (Olympus CX33®) at 100 × magnification. Representative images were captured using JENOPTIK GRYPHAX® imaging.
A 1 μL aliquot was taken out at varying timepoints (0, 1, 3, 6, and 18 h) and imaged by light microscopy. The images for 6 h are depicted here. […] The white arrow indicates “grooving” site, an indication of where separation of daughter cells should take place. Scale bar is 50 μm.
Four of the compounds (LXC 31, 33, 35 and 41) were tested at 1× and 2× their minimum inhibitory concentration (MIC) whereas LXC 36 and 43 were tested at 2× and 4× MIC. The phenotypic changes in A. baumannii morphology were analysed under a light microscope (100× magnification) at time 0, 1, 3, 6 and 18 h. Scale bar is 50 µm.

[15] = tested on: Streptococcus pyogenes ATCC 10389; test: Antibacterial activity (MIC), microbroth dilution; format: cell-based; details: ATCC10389; Streptococcus pyogenes ATCC 10389; unit inferred; read-out: Antibacterial activity (MIC)
Method: as §1, §2, §3

[16] = tested on: Streptococcus pneumoniae (type 3, mucoid strain) ATCC 6303; test: Antibacterial activity (MIC), microbroth dilution; format: cell-based; details: ATCC6303; Streptococcus pneumoniae ATCC 6303; unit inferred; read-out: Antibacterial activity (MIC)
Method: as §1, §2, §3

[17] = WTBW25113, Escherichia coli WT BW 25113, unit inferred, read-out: Antibacterial activity (MIC)
[18] = Acinetobacter baumannii, ATCC19606, A. baumannii ATCC 19606, 18 h, 37°C, read-out: MIC
[19] = Acinetobacter baumannii, XDRUW5075, 18 h

O=C/C=C/c1ccccc1 [cinnamaldehyde]
ED50, self-polymerization (E. coli FtsZ [1]): 6.9 µM
MIC (E. coli; ref Domadia et al., 2007, Li et al., 2015a): 1000 µg/mL (≈ 7570 µM)
Mechanism of action (bacteriostatic) (E. coli; ref Domadia et al., 2007): bacteriostatic
IC50 (E. coli FtsZ [2]): 5.8 µM

Colistin [reference compound]
MIC (A. baumannii ATCC 19606 [3]; A. baumannii ATCC 19606, 18 h, 37°C): 2 µg/mL
MIC (A. baumannii XDR UW 5075; A. baumannii XDR UW 5075, 18 h, 37°C): 2 µg/mL

Triton X-100 [reference compound]
Hemolytic activity (human red blood cells): completely disrupt the red blood cells

CO[C@H]1/C=C/O[C@@]2(C)Oc3c(C)c(O)c4c(O)c(c(/C=N/N5CCN(C)CC5)c(O)c4c3C2=O)NC(=O)/C(C)=C\C=C\[C@H](C)[C@H](O)[C@@H](C)[C@@H](O)[C@@H](C)[C@H](OC(C)=O)[C@@H]1C [RIF, rifampicin, reference compound]
MIC [4]: 32 µg/mL (≈ 38.9 µM)
MIC [5]: 32 µg/mL (≈ 38.9 µM)
MIC [6]: 8 µg/mL (≈ 9.72 µM)
MIC [7, 17]: > 16 µg/mL
MIC [8]: 32 µg/mL (≈ 38.9 µM)
MIC [9]: > 64 µg/mL
MIC [10]: 32 µg/mL (≈ 38.9 µM)
MIC [11]: > 16 µg/mL
MIC [12]: 16 µg/mL (≈ 19.4 µM)

CC1(C)S[C@@H]2[C@H](NC(=O)[C@H](N)c3ccc(O)cc3)C(=O)N2[C@H]1C(=O)O [Amoxycillin, reference compound]
MIC (A. baumannii ATCC 19606 [3]; [18]): 64 µg/mL (≈ 175 µM)
MIC (A. baumannii XDR UW 5075; [19]): 1020 µg/mL (≈ 2800 µM)

NC(N)=NCCC[C@H](NC(=O)[C@@H](N)Cc1ccccc1)C(=O)Nc1ccc2ccccc2c1 [PAβN, phenylalanine arginine-β-naphthylamide] (H-Phe-Arg-βNA)
Damage of the bacterial outer membrane [13]: does not damage the bacterial outer membrane

C[C@@H](O)[C@H]1C(=O)N2C(C(=O)O)=C(SCCN=CN)C[C@H]12 [Imipenem, reference compound]
MIC (A. baumannii ATCC 19606 [3]; [18]): 1 µg/mL (≈ 3.34 µM)
MIC (A. baumannii XDR UW 5075; [19]): 128 µg/mL (≈ 428 µM)

Cc1nc2ccccc2n1CCC(=O)NN=Cc1c(O)ccc2ccccc12 [divin, reference compound]
Cell morphology (A. baumannii ATCC 19606 [14]): elongated cell shape

CNC(C)C1CCC(N)C(OC2C(N)CC(N)C(OC3OCC(C)(O)C(NC)C3O)C2O)O1 (stereo not shown) [Gentamicin, reference compound]
MIC (A. baumannii ATCC 19606 [3]; Acinetobacter baumannii, ATCC19606, 18 h): 16 µg/mL (≈ 33.5 µM)
MIC (A. baumannii XDR UW 5075; [19]): > 1020 µg/mL

C[C@H]1COc2c(N3CCN(C)CC3)c(F)cc3c(=O)c(C(=O)O)cn1c23 [Levofloxacin, reference compound]
MIC [15]: 1 µg/mL (≈ 2.77 µM)
MIC [4]: 1 µg/mL (≈ 2.77 µM)
MIC [5]: 1 µg/mL (≈ 2.77 µM)
MIC [6]: 1 µg/mL (≈ 2.77 µM)
MIC ([7]; Escherichia coli, WTBW25113, read-out: Antibacterial activity (MIC)): 0.25 µg/mL (≈ 0.692 µM)
MIC [8]: 0.5 µg/mL (≈ 1.38 µM)
MIC [9]: 1 µg/mL (≈ 2.77 µM)
MIC [16]: 1 µg/mL (≈ 2.77 µM)
MIC [10]: 1 µg/mL (≈ 2.77 µM)
MIC [11]: 0.004 µg/mL (≈ 0.0111 µM)
MIC [12]: 1 µg/mL (≈ 2.77 µM)
MIC (A. baumannii ATCC 19606 [3]; [18]): 0.5 µg/mL (≈ 1.38 µM)
MIC (A. baumannii XDR UW 5075; [19]): 8 µg/mL (≈ 22.1 µM)

Cc1onc(-c2ccccc2)c1C(=O)N[C@@H]1C(=O)N2[C@@H]1SC(C)(C)[C@@H]2C(=O)O [OXA, oxacillin, reference compound]
MIC [4]: > 64 µg/mL
MIC [5]: 16 µg/mL (≈ 39.9 µM)
MIC [6]: > 64 µg/mL
MIC [7, 17]: > 64 µg/mL
MIC [8]: > 64 µg/mL
MIC [9]: > 64 µg/mL
MIC [10]: > 64 µg/mL
MIC [11]: > 64 µg/mL
MIC [12]: > 16 µg/mL
